We go through one compound from patent publication US10947261B2, “Tetravalent platinum compound-bicyclic double-bond-containing amphiphilic polymer prodrug, nano-micelle, preparation method and application thereof” (ANHUI UNIVERSITY, priority 2017, dated 2021).

This test has as its system MCF-7, A549 and HepG2 cells. As to the kind of experiment: Cellular uptake of drug-loaded micelles (confocal laser, flow cytometer). Type of test: cell-based, human. Conditions: doxorubicin 16 μg/mL, 4 h. On the technique in general: Flow cytometry measures light scatter and fluorescence of single cells or particles in a stream.

Protocol: Cell culture: human breast cancer cells (MCF-7), human lung adenocarcinoma cells (A549) and human hepatoma cells (HepG2) were respectively added to a standard 6-well plate, and about 10^5 cells are in each well. After overnight culture, the culture medium was removed, and 1.8 mL of fresh medium was added to prepare three cell culture solutions.
Drug treatment: 0.2 mL of each of the above two drugs (the final concentration of doxorubicin was 16 μg/mL) were added to the three cell culture solutions, respectively, and the cells were cultured for 4 h; subsequently, the culture medium was removed, and the cells were washed twice with PBS, fixed with 4% paraformaldehyde solution (about 5 min), and then washed twice with PBS; then, the nuclei of cells were stained with nuclear staining reagent (5 min), and the cells were washed twice with PBS.

In the case of `COc1cccc2c1C(=O)c1c(O)c3c(c(O)c1C2=O)C[C@@](O)(C(=O)CO)C[C@@H]3O[C@H]1C[C@H](N)[C@H](O)[C@H](C)O1` [doxorubicin], the cellular uptake result is “cellular uptake can effectively occur”.
